According to patent publication US10744084B2, “Non-specific delayed-type hypersensitivity response to treat herpes simplex virus infection” (Squarex, LLC, priority 2007, dated 2020):

Key:
[1] = Presensitization and dose finding: DNCB solution in acetone applied to spots on the forearm, DTH rash/erythema observed; format: in vivo, human; details: for erythema on forearm: sensitized subject
Text: The subject then applied a 0.1%, 0.2%, and 0.3% solutions to separate small spots on the forearm.

[2] = test system: herpes simplex virus type 1; assay: Treatment of an individual with frequent and severe cold sores: DNCB solution applied at the site of the HSV lesion on the lower lip; format: in vivo, human
Text: The individual treated was one of the inventors. They are a person and was […] at the time of this treatment. The subject suffered from frequent cold sores on the lower lip. The outbreaks typically lasted 7-10 days and frequently longer. The subject had suffered from frequent cold sores most of their life. During the 6 months prior to this treatment, the outbreaks had been almost continuous. After getting over one outbreak, the next outbreak would begin often within a week.
In the morning they washed it off. A mild erythema in the area of the cold sore developed over 2-3 days and lasted a further 5 days, and the cold sore resolved in about 7 days, which was a typical duration for this individual or a slightly shorter duration than normal. […] Each outbreak would begin and completely resolve in one day. […] We think this may be because the immune system was recognizing not just the DNCB but also the herpes virus antigens with this second application. With the greater inflammation, the cold sore outbreak was worse than any of the outbreaks between the first and second DNCB treatments. […] The outbreak seemed to worsen as the inflammation associated with the DTH response worsened, and only lessened when the DTH response subsided.
When the outbreak subsided, the subject went another 6 months without any outbreaks to the present time.
For several months before and for the entire time described herein after the initial DNCB treatment, the subject took no antiviral medicines.

[3] = test system: peripheral blood mononuclear cells; assay: PBMC proliferation assay with stimulation by heat inactivated KOS HSV-1 particles; format: cell-based, human; details: after treatment compared with before treatment; killed KOS HSV-1 particles
Text: At visit 1, before applying SADBE, a blood sample is collected from each patient for use in a peripheral blood mononuclear cell (PBMC) proliferation assay to test immune response to herpes virus.
Two months after visit 2 (the first treatment application of SADBE to an HSV lesion) if the patient has not experienced a recurrence outbreak after visit 2, or one month after visit 3 (the treatment application of SADBE to a lesion of a second outbreak), a blood sample is collected from the patient. The first, pretreatment, blood sample and the second, posttreatment, blood sample are used to conduct PBMC proliferation assays to test immune response to herpes virus before and after treatment.
Venous blood is collected in heparinized test tubes for mononuclear cell isolation prior to treatment and after treatment at the times described above. […]
KOS HSV-1 virus (American Type Culture Collection) is grown in culture in VERO cells and collected. […] The titer of the virus stock is determined. […]
Results are calculated by averaging optical density of the wells in each of the groups. A stimulation index is calculated to reflect the proliferation in the wells stimulated by killed HSV as compared to the positive and negative controls. The average optical absorbance of the positive controls is set as a stimulation index (SI) value of 100 and the average absorbance of the negative controls as a SI value of 0.

[4] = test system: herpes labialis; assay: Treatment of herpes labialis by squaric acid dibutyl ester (thirty patients, subject diaries); format: in vivo, human; details: sensitizing dose 2% SADBE in DMSO, then two treatments on lesions in the next two outbreaks
Protocol: Thirty patients are recruited meeting the following criteria:
In a screening interview, vital signs are recorded, and information is collected on any medications the patient is currently taking, previous and current treatments for cold sores, severity and duration of cold sores.
Upon entering the study, patients are sensitized to squaric acid dibutyl ester (SADBE) by dipping a cotton-tipped swab in a 2% solution of SADBE in DMSO and swabbing a 1 cm^2 area on the forearm. Participants are told then to wait at least 2 weeks for their first treatment.
Throughout the study, the participants are asked to maintain a subject diary, in which they record each day any symptoms they experience, including fever, swelling, pain, redness, itching, burning, the size of any lesions, and any medications taken.
After the 2-week period to allow development of sensitivity to SADBE, upon the beginning of his or her next outbreak (within 72 hours of the first signs of an outbreak), each participant is swabbed at the site of the herpes labialis lesion with a 0.5% solution of SADBE in DMSO.
Upon the next distinct outbreak at least 2 weeks after the previous treatment at visit 2, study diaries are collected. If the diary reflects redness, blistering, or burning greater than 0.5 cm beyond the clinical lesion with the previous SADBE treatment, the dosage of SADBE is decreased to 0.1%. […]

[5] = test system: warts; details: intralesional injection together with antigens; differences not statistically significant; cited from earlier work
[6] = first treatment, 0.2% DNCB on lower lip
[7] = second treatment, 0.2% DNCB on lower lip
[8] = third treatment, 0.1% DNCB solution

For `O=[N+]([O-])c1ccc(Cl)c([N+](=O)[O-])c1` [DNCB, 1-chloro-2,4-dinitrobenzene], the erythema on forearm ([1]; 0.1% DNCB solution) was “almost no erythema”, the erythema on forearm ([1]; 0.2% DNCB solution) was “mild but easily seen erythema” and the “rash on forearm after presensitizing application” value ([1]; 2% DNCB in acetone, first application, two spots on forearm) was “No rash developed”. The “duration of rash on forearm” value ([1]; 2% DNCB, second application two weeks after sensitizing dose) was 3 weeks, the “rash on forearm after second application” value ([1]; 2% DNCB, two weeks after sensitizing dose, different spots on forearm) was “very strong but localized rash” and the “severity and duration of subsequent outbreaks compared with before” value ([2]; 4 weeks after first treatment with 0.2% DNCB) was “much less severe and of much shorter duration than before”. For the same compound, the “erythema in the area of the cold sore” value ([2]; first treatment, 0.2% DNCB in acetone on lower lip, left on overnight) was “mild erythema”, the “further duration of erythema” value [2, 6] was 5 days and the “time over which erythema developed” value [2, 6] was 2 to 3 days. The “time to resolution of the treated cold sore” value [2, 6] was “about 7 days”, the time without outbreaks ([2]; following second DNCB treatment at the site of a lesion) was 6 months and the time without outbreaks ([2]; following third treatment (0.1% DNCB), to the present time) was 6 months. The “frequency of subsequent outbreaks” value ([2]; next 4 weeks after first treatment with 0.2% DNCB) was “approximately weekly”, the “duration of the treated outbreak” value [2, 7] was “about 7 days” and the “severity of the treated outbreak” value [2, 7] was “as severe or even slightly more severe than a typical outbreak”. The “inflammation and erythema with the application” value ([2]; second treatment, 0.2% DNCB on lower lip, about two months after the first) was “more severe than they had been with the first application”, the “DTH response at the cold sore” value [2, 8] was “moderate DTH response” and the “duration of the treated outbreak” value [2, 8] was “about 10 days”.
With `CCCCOc1c(OCCCC)c(=O)c1=O` [SADBE, squaric acid dibutyl ester] the “stimulation index of PBMC” value [3] was “increased after treatment”, the “duration of outbreaks compared with before treatment” value [4] was “last for less time” and the “number of outbreaks compared with before treatment” value [4] was “fewer outbreaks than before treatment”.
For “GM-CSF: granulocyte monocyte colony stimulating factor, cytokine used as immune response enhancer”, the “fraction of patients responding to treatment compared with antigen alone” value [5] is given as “larger fraction”.
For interferon alpha, the “fraction of patients responding to treatment compared with antigen alone” value [5] is given as “larger fraction”.
